Experimental data reported in the supplement of paper PMC4862054.

Key:
Test in all cases: normalised response (% of control), CellTiter-Glo; higher = more viable cells (100 = DMSO, 0 = benzethonium chloride kill control)
Settings in all cases: incubation time: 72 h
BT-474 [1] = system: BT-474
Method in brief: (§1)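 Normalised signals at single concentrations make up the values. They come from breast cancer cell lines seeded (20 µl suspension) into 384-well plates with compound at 5 concentrations in 10-fold steps over a compound-specific 10,000-fold range, incubated 72 h, and read for CellTox Green fluorescence then CellTiter-Glo luminescence. Each plate was normalised to 0.1 % DMSO (100) and a positive kill control (0).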

DU-4475 [2] = system: DU-4475
Method in brief: as §1

HCC1937 [3] = system: HCC1937
Method in brief: as §1

HDQ-P1 [4] = system: HDQ-P1
Method in brief: as §1

MCF-10A [5] = system: MCF-10A
Method in brief: as §1

MDA-MB-231 [6] = system: MDA-MB-231
Method in brief: as §1

MFM-223 [7] = system: MFM-223
Method in brief: as §1

BT-474 [8] = system: BT-474; remark: listed apart in the source
Protocol: (§2)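 DSRT, 72 h incubation, CellTox Green / CellTiter-Glo readout. Signal is normalised to DMSO and benzethonium chloride controls. Value is the normalised response at the highest dose.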

BT-549 = system: BT-549
Protocol: as §2

CAL-120 = system: CAL-120
Protocol: as §2

CAL-148 = system: CAL-148
Protocol: as §2

CAL-51 = system: CAL-51
Protocol: as §2

CAL-85-1 = system: CAL-85-1
Protocol: as §2

DU-4475 [9] = system: DU-4475; remark: listed apart in the source
Protocol: as §2

HCC1143 = system: HCC1143
Protocol: as §2

HCC1599 = system: HCC1599
Protocol: as §2

HCC1937 [10] = system: HCC1937; remark: listed apart in the source
Protocol: as §2

HDQ-P1 [11] = system: HDQ-P1; remark: listed apart in the source
Protocol: as §2

Hs578T = system: Hs578T
Protocol: as §2

MCF-10A [12] = system: MCF-10A; remark: listed apart in the source
Protocol: as §2

MDA-MB-231 [13] = system: MDA-MB-231; remark: listed apart in the source
Protocol: as §2

MDA-MB-436 = system: MDA-MB-436
Protocol: as §2

MDA-MB-453 = system: MDA-MB-453
Protocol: as §2

MDA-MB-468 = system: MDA-MB-468
Protocol: as §2

MFM-223 [14] = system: MFM-223; remark: listed apart in the source
Protocol: as §2

SK-BR-3 = system: SK-BR-3
Protocol: as §2

Row | Compound | normalised response (BT-474 [1]) [%] | normalised response (DU-4475 [2]) [%] | normalised response (HCC1937 [3]) [%] | normalised response (HDQ-P1 [4]) [%] | normalised response (MCF-10A [5]) [%] | normalised response (MDA-MB-231 [6]) [%] | normalised response (MFM-223 [7]) [%] | also measured
1 | C#Cc1cccc(Nc2ncnc3cc(OC)c(OCCCCCCC(=O)NO)cc23)c1 [CUDC-101] (1000 nM) | 72.9 | 64.1 | 63.6 | 70 | 28.9 | 39.1 | 33.4 | 
2 | C#Cc1cccc(Nc2ncnc3cc(OC)c(OCCCCCCC(=O)NO)cc23)c1 [CUDC-101] (10000 nM) |  |  |  |  |  |  |  | normalised response (BT-474 [8]): 8.24%; normalised response (BT-549): 18%; normalised response (CAL-120): 38.6%; normalised response (CAL-148): 0.32%; normalised response (CAL-51): 12.8%; normalised response (CAL-85-1): 1.02%; normalised response (DU-4475 [9]): 5.82%; normalised response (HCC1143): 15.1%; normalised response (HCC1599): 7.05%; normalised response (HCC1937 [10]): 21%; normalised response (HDQ-P1 [11]): 33.4%; normalised response (Hs578T): 6.2%; normalised response (MCF-10A [12]): 8.27%; normalised response (MDA-MB-231 [13]): 2.74%; normalised response (MDA-MB-436): 33.5%; normalised response (MDA-MB-453): 4.64%; normalised response (MDA-MB-468): 9.04%; normalised response (MFM-223 [14]): 26.4%; normalised response (SK-BR-3): 0.76%
3 | COc1cccc2c1C(=O)c1c(O)c3c(c(O)c1C2=O)C[C@@](O)(C(C)=O)C[C@@H]3O[C@H]1C[C@H](N)[C@H](O)[C@H](C)O1 [Daunorubicin] (100 nM) | 82.5 | 86.9 | 98.2 | 91.8 | 103 | 88.7 | 115 | 
4 | CN1CCN(c2ccc3nc(-c4c(N)c5c(F)cccc5[nH]c4=O)[nH]c3c2)CC1 [Dovitinib] (1000 nM) | 95.1 | 101 | 94.7 | 102 | 97.2 | 101 | 95.4 | 
5 | O=c1[nH]c(=O)n([C@H]2C[C@H](O)[C@@H](CO)O2)cc1F [Floxuridine] (1000 nM) | 67.1 | 92.8 | 56.4 | 83.9 | 106 | 76.8 | 104 | 
6 | O=c1[nH]cc(F)c(=O)[nH]1 [Fluorouracil] (1000 nM) | 111 | 90.2 | 94.7 | 92.2 | 116 | 97.7 | 102 | 
7 | C[C@@H]1C=C2C(=O)O[C@@H]3CC[C@H](C1)[C@]23O [Galiellalactone] (5000 nM) | 99.3 | 102 | 98.4 | 100 | 105 | 114 | 104 | 
8 | COC1=C2C[C@@H](C)C[C@H](OC)[C@H](O)[C@@H](C)/C=C(\C)[C@H](OC(N)=O)[C@@H](OC)/C=C\C=C(/C)C(=O)NC(=CC1=O)C2=O [Geldanamycin] (1000 nM) | 101 | 91.4 | 89.8 | 97.2 | 99.7 | 97.9 | 40.4 | 
